# Experimental data from patent publication US20150017092A1, “DEVICES AND METHODS FOR DETERMINING SENSITIVITY TO RADIATION” (The Regents of the University of California, priority 2012, published 2015).
# Columns and labels:
# [1] = test system: MCF10A; experiment: 53BP1 radiation induced foci (RIF) time response in MCF10A exposed to X-rays under ATM inhibition, fitted with Eq. 1; assay type: cell-based, human; settings: for T1/2_1 (RIF induction half-life): 10 μM inhibitor; for α, RIF/Gy (absolute RIF yield): 10 μM inhibitor from 1 h pre-IR, one experiment
# Excerpt: To test the validity of the mathematical model further, we perturbed the rates of RIF formation or RIF removal by inhibiting ataxia telangiectasia mutated (ATM) kinase activity with KU55933 (see Materials and Methods).
# The cells were fixed for immunofluorescence at specific intervals after exposure to X-rays. We typically refer to “low dose” or “high dose” as doses below or equal to 0.1 Gy or larger than 1 Gy, respectively. For high-LET IR, cells were irradiated at the accelerator beam line of the National Aeronautics and Space Administration Space […] Laboratory at Brookhaven National Laboratory.
# We are only briefly describing these procedures. For complete information, see Supplemental Information Materials and Methods. Immunostaining using anti-53BP1 (rabbit polyclonal, Bethyl Laboratories A300-272A) was performed according to previous staining protocol (Costes et al. (2006) Radiat. Res. 165: 505-515). For image acquisition, both live and fixed MCF10A were imaged using a Zeiss plan-apochromat 40× dry objective (N.A. of 0.95) at a fixed exposure time. Nondeconvolved 3D stacks were acquired and used for image analysis (10 slices of 0.5-μm steps for fixed cells and 3 slices of 1-μm step for live cells). All image manipulations, foci analysis, and statistics were done with Matlab (MathWorks, Inc.) and DIPimage (image processing toolbox for Matlab, Delft University of Technology). In contrast to previous intensity-based methods for RIF identification (Bocker and Iliakis (2006) Radiat. Res. 165: 113-124), we used a pattern recognition approach to detect RIF by applying a wavelet morphological filter to enhance RIF peaks in the image while reducing noise from nonspecific signals (Olivo-Marin (2002) Pattern Recognition 35: 1989-1996). Nuclear space occupied by RIF was identified by applying a constant threshold on the wavelet filtered image, and watershed algorithm was used to separate touching RIF. To test if focus size could affect the accuracy of automatic RIF detection, we applied the software on simulated data where foci sizes and densities had different values (i.e., 1 to 40 foci/nucleus were simulated with four distinct sizes: 0.1, 0.4, 1.3, and 2.4 μm^3; FIG. 17). […] Finally, in order to extract the number of “real” RIF from the number of background foci in each scored nucleus, we introduced a background subtraction method that assumes the measured RIF distribution is the result of a convolution between the “real” RIF distribution and the background foci distribution (FIG. 18). For quantification of RIF in live cells, we counted both the cumulative and instantaneous number of RIF manually in 3D time-lapse images. Time interval varied between experiments and was generally set to 10-min interval for the first hour, followed by 30-min interval afterwards. This setting was optimum to minimize phototoxicity and specimen bleaching. Because of the difficulty of software to track individual foci in successive time lapse, analysis had to be done manually in a blind manner on processed images.
# In order to interpret RIF kinetics in an unbiased manner, we introduce a simple mathematical model describing RIF formation where one DSB is detected at a rate k leading to one RIF, and one RIF is resolved after repair at a rate k2, assuming both processes are irreversible. This model can be noted as follows:
# where α is the number of naked DSB/Gy before formation of RIF and D is the dose delivered to the cell. Alpha (α) should be constant for all doses. Further details are provided in the supporting information materials and methods regarding the way Eq. 1 is fitted.
# [2] = biological target: T1, ataxia telangiectasia mutated (ATM) kinase (Homo sapiens, UniProt Q13315); experiment: Inhibition of ATM measured by Western blot of P53-S15p; assay type: cell-based; settings: 10 μM inhibitor, MCF10A
# T1 construct: endogenous in cells; host or cells: MCF10A (human mammary epithelial cells, ATCC)
# T1 sequence (Q13315 whole entry, change not shown): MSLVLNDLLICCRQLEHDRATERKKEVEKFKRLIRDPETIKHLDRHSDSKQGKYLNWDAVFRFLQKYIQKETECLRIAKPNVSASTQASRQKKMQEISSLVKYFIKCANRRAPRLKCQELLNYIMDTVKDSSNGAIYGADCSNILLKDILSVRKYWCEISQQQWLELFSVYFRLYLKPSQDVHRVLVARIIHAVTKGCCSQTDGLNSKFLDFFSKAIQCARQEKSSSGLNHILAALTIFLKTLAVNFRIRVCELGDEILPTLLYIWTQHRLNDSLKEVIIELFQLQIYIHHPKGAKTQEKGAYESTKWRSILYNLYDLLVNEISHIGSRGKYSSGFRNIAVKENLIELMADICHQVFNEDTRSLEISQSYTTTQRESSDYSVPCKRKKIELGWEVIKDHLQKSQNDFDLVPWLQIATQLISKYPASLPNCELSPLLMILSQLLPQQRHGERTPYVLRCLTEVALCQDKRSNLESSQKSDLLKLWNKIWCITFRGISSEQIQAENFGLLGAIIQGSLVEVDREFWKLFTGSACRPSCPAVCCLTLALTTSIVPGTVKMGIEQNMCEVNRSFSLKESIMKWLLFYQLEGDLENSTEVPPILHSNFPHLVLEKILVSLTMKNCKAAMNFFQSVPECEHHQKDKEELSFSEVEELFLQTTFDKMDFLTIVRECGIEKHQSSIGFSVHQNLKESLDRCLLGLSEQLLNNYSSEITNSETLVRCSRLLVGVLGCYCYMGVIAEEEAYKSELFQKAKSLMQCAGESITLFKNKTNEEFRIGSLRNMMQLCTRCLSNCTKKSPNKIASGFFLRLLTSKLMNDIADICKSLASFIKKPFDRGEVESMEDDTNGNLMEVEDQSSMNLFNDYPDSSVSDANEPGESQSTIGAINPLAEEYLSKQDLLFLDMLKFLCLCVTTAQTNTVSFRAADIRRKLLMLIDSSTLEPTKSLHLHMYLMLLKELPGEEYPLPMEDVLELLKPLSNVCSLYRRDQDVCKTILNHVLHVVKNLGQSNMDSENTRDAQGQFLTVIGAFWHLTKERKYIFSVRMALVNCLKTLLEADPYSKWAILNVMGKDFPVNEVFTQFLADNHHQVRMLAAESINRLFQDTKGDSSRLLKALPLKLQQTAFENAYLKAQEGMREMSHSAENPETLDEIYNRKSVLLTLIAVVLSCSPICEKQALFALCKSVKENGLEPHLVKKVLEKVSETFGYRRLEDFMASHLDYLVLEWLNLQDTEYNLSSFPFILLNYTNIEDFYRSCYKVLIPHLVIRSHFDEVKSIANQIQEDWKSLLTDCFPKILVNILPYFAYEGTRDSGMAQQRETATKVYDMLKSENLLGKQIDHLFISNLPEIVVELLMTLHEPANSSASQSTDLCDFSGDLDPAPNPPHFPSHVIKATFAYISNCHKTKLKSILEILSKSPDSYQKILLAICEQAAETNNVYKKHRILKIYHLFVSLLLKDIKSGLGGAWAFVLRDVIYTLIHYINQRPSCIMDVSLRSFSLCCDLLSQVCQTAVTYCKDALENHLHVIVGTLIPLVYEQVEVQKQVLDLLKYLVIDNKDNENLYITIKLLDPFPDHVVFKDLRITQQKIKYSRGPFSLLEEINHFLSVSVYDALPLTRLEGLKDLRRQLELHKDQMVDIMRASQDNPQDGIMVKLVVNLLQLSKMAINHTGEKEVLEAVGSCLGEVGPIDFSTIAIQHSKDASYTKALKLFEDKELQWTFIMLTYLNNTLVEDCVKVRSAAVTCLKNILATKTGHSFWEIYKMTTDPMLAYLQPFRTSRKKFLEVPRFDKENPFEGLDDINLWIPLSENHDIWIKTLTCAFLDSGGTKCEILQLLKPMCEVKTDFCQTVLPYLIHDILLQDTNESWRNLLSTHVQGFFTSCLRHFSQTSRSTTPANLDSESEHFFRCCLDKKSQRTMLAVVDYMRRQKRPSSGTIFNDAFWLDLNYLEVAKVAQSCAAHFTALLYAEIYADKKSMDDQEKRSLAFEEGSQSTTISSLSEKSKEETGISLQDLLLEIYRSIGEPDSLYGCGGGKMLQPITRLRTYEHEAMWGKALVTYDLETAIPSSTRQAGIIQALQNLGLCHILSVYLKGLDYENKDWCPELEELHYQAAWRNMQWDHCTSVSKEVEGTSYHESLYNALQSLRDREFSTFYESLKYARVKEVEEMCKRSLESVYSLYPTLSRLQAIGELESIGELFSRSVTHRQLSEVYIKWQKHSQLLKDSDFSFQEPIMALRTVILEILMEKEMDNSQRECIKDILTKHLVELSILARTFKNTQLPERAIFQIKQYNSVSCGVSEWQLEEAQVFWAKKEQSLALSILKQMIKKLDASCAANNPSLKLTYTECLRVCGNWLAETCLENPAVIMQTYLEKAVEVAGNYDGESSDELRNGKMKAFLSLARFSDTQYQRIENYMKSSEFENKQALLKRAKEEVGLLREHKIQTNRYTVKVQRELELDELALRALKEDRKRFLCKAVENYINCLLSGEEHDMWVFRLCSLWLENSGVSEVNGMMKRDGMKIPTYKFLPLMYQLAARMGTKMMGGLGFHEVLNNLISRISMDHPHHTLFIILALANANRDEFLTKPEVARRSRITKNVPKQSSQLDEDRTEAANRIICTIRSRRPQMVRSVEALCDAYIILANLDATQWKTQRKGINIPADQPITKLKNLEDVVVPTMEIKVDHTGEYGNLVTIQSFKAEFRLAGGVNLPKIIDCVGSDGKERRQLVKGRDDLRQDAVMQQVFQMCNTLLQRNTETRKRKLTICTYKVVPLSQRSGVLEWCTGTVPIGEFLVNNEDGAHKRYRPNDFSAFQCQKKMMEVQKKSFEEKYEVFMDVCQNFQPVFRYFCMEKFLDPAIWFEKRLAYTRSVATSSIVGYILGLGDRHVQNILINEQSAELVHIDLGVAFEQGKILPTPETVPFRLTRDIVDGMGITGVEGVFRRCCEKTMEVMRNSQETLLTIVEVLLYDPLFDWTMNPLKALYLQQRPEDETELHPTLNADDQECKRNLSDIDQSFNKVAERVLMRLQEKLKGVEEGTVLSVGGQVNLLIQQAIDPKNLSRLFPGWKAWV
smiles,measurement,setting,value
O=c1cc(-c2cccc3c2Sc2ccccc2S3)oc(N2CCOCC2)c1 [KU55933],T1/2_1 (RIF induction half-life),[1]; 0.1 Gy X-rays,8.3 min
same,"α, RIF/Gy (absolute RIF yield)",[1]; 0.1 Gy X-rays,25±17 RIF/Gy
same,"α, RIF/Gy (absolute RIF yield)","[1]; 0.1 Gy X-rays, listed as ATM inhibition",25 RIF/Gy
same,T1/2_1 (RIF induction half-life),[1]; 0.4 Gy X-rays,5.9 min
same,"α, RIF/Gy (absolute RIF yield)",[1]; 0.4 Gy X-rays,25 RIF/Gy
same,T1/2_1 (RIF induction half-life),[1]; 1 Gy X-rays,4.2 min
same,"α, RIF/Gy (absolute RIF yield)",[1]; 1 Gy X-rays,19 RIF/Gy
same,T1/2_1 (RIF induction half-life),[1]; 2 Gy X-rays,2.6 min
same,"α, RIF/Gy (absolute RIF yield)",[1]; 2 Gy X-rays,12±2 RIF/Gy
same,"α, RIF/Gy (absolute RIF yield)","[1]; 2 Gy X-rays, listed as ATM inhibition",12 RIF/Gy
same,detection half-lives with versus without ATM inhibition,[1]; across all doses,comparable
same,reduction of α versus normal conditions,[1]; after 0.1 Gy of X-rays,3 fold
same,reduction of α versus normal conditions,[1]; after 2 Gy of X-rays,no significant reduction
same,RIF resolution with versus without ATM inhibition,[1]; at high doses,significantly slower
same,drop of RIF yield between 0.1 and 2 Gy,[1]; under ATM inhibition,2 fold
same,overall number of RIF,[1]; under ATM inhibition versus normal media,largely diminished
same,phosphorylated p53 at S15,[2],reduction
